Data taken from paper PMC12741935 (Alzheimer's & Dementia, 2025).
pEC50: −log10 of the molar value.

Legend:
[1] = Body weight during chronic twice daily oral dosing of aged 5xFAD mice; format: in vivo; details: 8- to 9-month-old 5xFAD, twice daily oral administration, within first 31 days; seen with both NVS-PAK1-1 and vehicle
Method: Serial blood was collected from n = 3 per treatment group at 0.5, 1, 2, and 4 hours post dose; with terminal blood and brain collected at 4 hours post dose. A staggered cohort of n = 3 per treatment group were assigned to serial blood collections at 0.5, 1, 2, and 8 hours post dose with terminal blood and brain collected at 4 and 24 hours post dose. Informed by exposure data from the initial PK/PD study, a subsequent chronic PK/PD study was designed to evaluate twice daily treatment of 100 mg/kg (PO) in female and male 5xFAD mice compared to age‐ and sex‐matched vehicle‐treated 5xFAD and vehicle‐treated WT littermate controls (Table S2 in supporting information). Terminal blood and brain was collected at 4 hours after the final dose. […] All in vivo target engagement and PK/PD studies were conducted under blinded conditions for age, genotype, and treatment, and the blind was maintained until after analyses were conducted.
Drug concentrations were prepared immediately before dosing each day. The dose volume was delivered at 10 mL/kg based on each subject's daily weight collected just prior to the morning dose and administered via PO. For the chronic PD study, twice daily dosing (BID) was conducted between 7:00 and 9:00 am each morning and 3:00 to 5:00 pm each evening with the same day's formulation stored at 4°C between dosing intervals.

[2] = Adverse event observation in CD-1 PK study; format: in vivo; details: 10 mg/kg IP, CD-1 mice
Method: The dose volume was 10 mL/kg.

[3] = test system: 14 DIV mouse hippocampal neurons; assay: oTau-induced spine loss: drebrin-positive spine density in cultured hippocampal neurons; format: cell-based; details: oTau 50 nM + inhibitor 24 h vs oTau alone; NVS-PAK1-1 10 nM, NVS-PAK1-C 10 nM, AZ13705339 1 nM, G5555 5 nM
Method: (§1) For in vitro study, all animal procedures were conducted in accordance with the National Institutes of Health Guide for the Care and Use of Laboratory Animals using protocols approved by the institutional animal care and use committee at Stanford University. Timed pregnant C57BL/6 mice (Strain code: 027) were purchased from Charles River Laboratories and delivered on embryonic day 15 (E15), after which E16 embryos were used for primary hippocampal cultures. Primary embryonic mouse hippocampal neuron cultures were plated on poly‐D‐lysine‐coated (10 µg/mL) glass cover slips at 40,000 to 50,000 cells per well in 12‐well plates (Corning Life Sciences). Cells were seeded in plating medium DMEM/F12 supplemented with 10% fetal bovine serum and 1 × penicillin/streptomycin (PS) for 2 hours. Medium was then changed to B‐27 Plus Neuronal Culture System (Invitrogen) supplemented with PS, and 2 mM glutamine.
(§2) Immunofluorescence was performed as described previously.[24] Briefly, cultured hippocampal neurons were fixed in 4% formaldehyde for 20 minutes, permeabilized for 6 minutes in 80% ice‐cold methanol, and incubated with primary antibodies at 4°C overnight. Primary antibodies used were rabbit polyclonal MAP2 antibody for labeling dendrites (1:1000, #8707, Cell Signaling) and mouse monoclonal drebrin antibody for labeling dendritic spines (1:300; Cat#ADI‐NBA‐110, Enzo). Secondary antibodies consisted of donkey antirabbit or antimouse conjugated with either FITC or Cy3 (1:400; Jackson ImmunoResearch Laboratories, Inc.).
The cultured hippocampal neurons were imaged using an oil‐based 63x objective on a Leica Stellaris 5 confocal microscope. The cell nucleus was stained with DAPI and imaged at a wavelength of 405 nm (blue channel), the dendrites stained by MAP2 were imaged at 488 nm wavelength (green channel), and the drebrin‐stained spines were imaged at a wavelength of 561 nm (red channel). […] The number of steps for every z‐stack picture of a neuron were determined by the size of the neuron in the z‐plane, to ensure that the entirety of a neuron is captured in the picture. […]
For quantification of drebrin‐positive spines in vitro, the images were analyzed using Imaris 9.3 software. […] After manually tracing the dendrites, the spines along the dendrites were assessed using the automatic “spine detection” function in Imaris. […] The spine density (number of spines/dendrite length) was then calculated for each neuron. All image acquisition and quantification were performed in a blind manner. For in vitro quantification of dendrite degeneration, Neurolucida (MBF Biosciences) in the manual mode was used to measure the total dendritic length, numbers of dendrites, and dendritic complexity for each neuron.

[4] = test system: 14 DIV mouse hippocampal neurons; assay: oAβ-induced spine loss: drebrin-positive spine density in cultured hippocampal neurons; format: cell-based
Method: as §1, §2
The cultured hippocampal neurons were imaged using an oil‐based 63x objective on a Leica Stellaris 5 confocal microscope. The cell nucleus was stained with DAPI and imaged at a wavelength of 405 nm (blue channel), the dendrites stained by MAP2 were imaged at 488 nm wavelength (green channel), and the drebrin‐stained spines were imaged at a wavelength of 561 nm (red channel). Z‐stack images of neurons were acquired at a 1024 × 1024 resolution, a zoom factor of 1.0, and a z‐step size of 0.5 µm. The number of steps for every z‐stack picture of a neuron were determined by the size of the neuron in the z‐plane, to ensure that the entirety of a neuron is captured in the picture. The areas to be imaged were selected systematically, starting from the top‐left region to proceeding to the bottom‐right region of a coverslip. For imaging, preference was given to field of views containing isolated neurons versus clustered neurons.
For quantification of drebrin‐positive spines in vitro, the images were analyzed using Imaris 9.3 software. Each image consisted of one major neuron and the “filaments” option in Imaris was applied to manually trace along the dendrites of every neuron, by placing starting and seed points at the beginning and along the length of the dendrites, respectively. The largest dendrite diameter (i.e., Starting Point) was set at 9.00 µm threshold while the thinnest dendrite diameter (i.e., Seed Point) was set at 1.00 µm threshold. After manually tracing the dendrites, the spines along the dendrites were assessed using the automatic “spine detection” function in Imaris. […] The spine density (number of spines/dendrite length) was then calculated for each neuron. All image acquisition and quantification were performed in a blind manner. For in vitro quantification of dendrite degeneration, Neurolucida (MBF Biosciences) in the manual mode was used to measure the total dendritic length, numbers of dendrites, and dendritic complexity for each neuron.

With CC(C)NC(=O)N1CC[C@H](NC2=Nc3cc(F)ccc3N(CC(F)F)c3ccc(Cl)cc32)C1 [NVS‐PAK1‐1, (S)‐3‐([2‐chloro‐5‐(2,2‐difluoroethyl)‐8‐fluoro‐5H‐dibenzo[b,e][1,4]diazepin‐11‐yl]amino)‐N‐isopropylpyrrolidine‐1‐carboxamide] the weight loss [1] was “≈ 20%”, the adverse events [2] was “No adverse events were observed” and the “drebrin-stained spine density (spine counts per µm of dendritic length)” value [3] was “significantly higher spine counts”. The pEC50 ([4]; Mus musculus, Hippocampal neuron, 24 h, oAβ 1 µM, 24 h, 14 DIV neurons, read-out: EC50, concentration at which NVS-PAK1-1 reduced oAβ-induced loss of spine density by 50%) was 8.70 and the “drebrin-stained spine density (spine counts per µm of dendritic length)” value ([4]; oAβ 1 µM + inhibitor 24 h vs oAβ alone, NVS-PAK1-1 10 nM, NVS-PAK1-C 10 nM, AZ13705339 1 nM, G5555 5 nM) was “significantly higher spine counts”.
